For two compounds, IC50 results are on record in US6475531B1, “Safe botanical drug for treatment and prevention of influenza and increasing immune function” (priority 2001, dated 2002).

Type in all cases: cell-based, influenza A viruses
The test system of experiment [1] is A/England/939/69. Put plainly: Plaque inhibition assay in MDCK cells. Conditions: Influenza A virus.
In experiment [2] the test system is A/Brazil/11/78 (H1N1). The experiment is described as follows: Plaque inhibition assay in MDCK cells. Conditions: Influenza A virus.
In experiment [3] the test system is A/Singapore/1/75 (H2N2). The experiment is described as follows: microbe, parasite or virus in culture. Conditions: Influenza A virus, H2N2, MDCK.
The test system of experiment [4] is A/Beijing/32/92 (H3N2). The experiment is described as follows: Plaque inhibition assay in MDCK cells. Conditions: Influenza A virus.

Molecules are shown by their SMILES. ≈ marks a conversion by molar mass, not a printed value.

For `NC12CC3CC(CC(C3)C1)C2` [Amantadine], the IC50 in experiment [1] was 21 µg/mL (≈ 139 µM); in experiment [2] it was 38 µg/mL (≈ 251 µM); in experiment [3], 11 µg/mL (≈ 72.7 µM); in experiment [4], 25 µg/mL (≈ 165 µM).
For the compound `NC(=O)c1ncn([C@@H]2O[C@H](CO)[C@@H](O)[C@H]2O)n1` [Ribavirin], the half-maximal inhibitory concentration (IC50) in experiment [1] came out at 46 µg/mL (≈ 188 µM); in experiment [2], 56 µg/mL (≈ 229 µM); in experiment [3], 82 µg/mL (≈ 336 µM); in experiment [4] it was 90 µg/mL (≈ 369 µM).

As a reminder, the IC50 is the point on the concentration scale where inhibition reaches its midpoint. A low value points to greater potency in that assay.
